Where a name gives a salt, the structure may show the parent alone. Read-outs that look alike come from different tables or passages of the source.

One data set concerns platelets. Nature of the data set: Platelet aggregation inhibitory activity (method by Born et al., platelet rich plasma, ADP or collagen as inducer). The data set is classed as cell-based. To be noted: rabbit PRP, 400,000 platelets/µl, 37°C. As to the method: This sample was subjected to centrifugation at 1,100 rpm for 10 minutes to obtain a platelet rich plasma (PRP). The remaining sample was subjected to further centrifugation at 3,000 rpm for 15 minutes to obtain a platelet poor plasma (PPP).
The number of platelets in the PRP obtained above was counted by coulter Counter manufactured by Coulter Electronics Inc. Then, the PRP was diluted with the PPP so that the number of platelets in the PRP after dilution became 400,000 platelets/µl, whereby a PRP solution was prepared.
There were placed in a cell for aggregation determination, 2 µl of a solution containing a test compound at a given concentration and 200 µl of the PRP solution prepared above. The cell was heated at 37°C for 1 minute. Then, to the cell contents was added 20 µl of adenosine diphosphate (ADP, manufactured by Sigma Co.) or 20 µl of a collagen suspension (Collagen Reagent Horm, manufactured by Hormon-Chemie Co.) to induce aggregation of platelets. Then, the platelet aggregation was determined for change in transmittance, and a platelet aggregation curve was drawn.
The mixture aggregation rate (MAR) of platelets was calculated from the platelet aggregation curve, using the following formula.
In the above, MAR was calculated also for a control containing no test compound. Using this MAR as a base, the platelet aggregation inhibitions rate (%) of each test compound at various concentrations were calculated from the following formula. Inhibition rate (%) = [1-(MAR of test compound-containing PRP)/(MAR of test compound-free PRP)] x100 [formula]

In another data set the test system is mongrel dogs. The data set can be described thus: Increase in heart rate in anesthetized mongrel dogs. It is filed as in vivo. To be noted: mongrel dogs under pentobarbital sodium anesthesia, artificial breathing; 30 µg/kg through cannula in femoral artery. On the procedure:
Increase in heart rate as well as hypotensive activity of test compounds were measured as follows by using mongrel dogs (body weight = 10-20 kg). That is, mongrel dogs were put under anesthesia by intravenous administration of pentobarbital sodium, then fixed at the back position, and subjected to testing under artificial breathing condition. Blood pressure was measured by using a blood pressure transducer (P23XL, manufactured by Gould Statham Instruments, Inc.) via a cannula inserted into the femoral artery of the mongrel dog. Heart rate was measured via a tachometer, based on the pulse wave of the blood pressure. These signals were recorded on a thermal-pen type recorder (Recti-Horiz 8K, manufactured by Nihon Denki San-ei).
The test compounds mentioned in the Pharmacological Test I were also used as test compounds in this Test-II. Each of them was dissolved in a mixed solution of N,N'-dimenthylformamide and a physiological saline solution, and each resulting solution was administered to the test dogs through the cannulas inserted into their femoral arteries, in an amount of 30 µg (test compound)/kg of body weight. The heart rate of each dog after the administration of test compound was measured as mentioned above, whereby the maximum increase in heart rate was obtained.

The mark [1] stands for this setting: Oryctolagus cuniculus, Platelet, aggregation induced by ADP, final concentration 7.5 µM, read-out: IC50 (µM) ADP.
[2] abbreviates: Oryctolagus cuniculus, Platelet, aggregation induced by collagen, final concentration 20 µg/ml, read-out: IC50 (µM) Collagen.
Where [3] appears, read: aggregation induced by ADP, final concentration 7.5 µM, read-out: IC50 (µM) ADP.
Setting [4] is: aggregation induced by collagen, final concentration 20 µg/ml, read-out: IC50 (µM) Collagen.

Regarding `CSCCC(CO)N(CC1CCCCC1)C(=O)CCCCOc1ccc2[nH]c(=O)ccc2c1` (stereo not drawn) [Example 46], the IC50 in the data set on platelets (setting [1]) amounted to 1.1 µM; with platelets (setting [2]), 0.53 µM.

As to `O=C(CCCCOc1ccc2[nH]c(=O)ccc2c1)N(CCn1ccnc1)CC1CCCCC1` [Example 12], the IC50 with platelets (setting [3]) is 6 µM; with platelets (setting [4]), 3.2 µM. For the same molecule, the “Maximum increase in heart rate (beats/min) (Administration amount = 30 µg/kg)” value in the data set on mongrel dogs was 12 beats/min.

Take `CC(=O)NCCN(CC1CCCCCCC1)C(=O)CCCCOc1ccc2[nH]c(=O)ccc2c1` [Example 24]: the half-maximal inhibitory concentration (IC50) with platelets (setting [1]) stood at 2.2 µM; with platelets (setting [2]), 1.3 µM.

On to `O=C(CCCCOc1ccc2[nH]c(=O)ccc2c1)N(CCSC1CCCCO1)CC1CCCCC1` (stereo not drawn) [Example 45], for which the IC50 with platelets (setting [1]) and with platelets (setting [2]) was 2.2 µM each time.

For `O=C(CCCCOc1ccc2[nH]c(=O)ccc2c1)N(CCS)CC1CCCCC1` [Example 44], the IC50 in the data set on platelets (setting [1]) worked out at 5 µM; in the data set with platelets (setting [2]), 3.6 µM. In addition, the “Maximum increase in heart rate (beats/min) (Administration amount = 30 µg/kg)” value in the data set on mongrel dogs is given as 11 beats/min.

As to `CC(=O)NCCN(CC1CCCCCCC1)C(=O)CCCCOc1ccc2[nH]c(=O)ccc2c1` [Test compound 24, 6-{4-[N-cyclooctylmethyl-N-(2-acetylaminoethyl)-aminocarbonyl]butoxy}carbostyril], the IC50 in the data set on platelets (aggregation induced by ADP, final concentration 7.5 µM, listed as 42, read-out: IC50 (µM) ADP) turned out to be 1.9 µM; in the data set with platelets (aggregation induced by collagen, final concentration 20 µg/ml, listed as 42, read-out: IC50 (µM) Collagen), 1.6 µM.

For `CCN(CC)C[C@H](CO)N(CC1CCCCCCC1)C(=O)CCCCOc1ccc2[nH]c(=O)ccc2c1` [Example 22], the IC50 in the data set with platelets (setting [1]) stood at 1.2 µM; in the data set with platelets (setting [2]), 0.8 µM.

As to `CCN(CC)C(=O)CN(CC1CCCCCCC1)C(=O)CCCCOc1ccc2[nH]c(=O)ccc2c1` [Example 19], the IC50 in the data set with platelets (setting [1]) was found to be 1.5 µM; with platelets (setting [2]), 0.71 µM.

For the molecule `O=C(CCCCOc1ccc2[nH]c(=O)ccc2c1)N(CCN1CCC(O)C1)CC1CCCCCCC1.O=C(O)C(=O)O` (stereo not drawn) [Example 6], the figures for the IC50 with platelets (setting [3]) and in the data set on platelets (setting [4]) were 3.5 µM and 1.3 µM, respectively. Further, in the data set with mongrel dogs, the “Maximum increase in heart rate (beats/min) (Administration amount = 30 µg/kg)” value stood at 5 beats/min.

On to `CCN(CC)CCCN(CC1CCCCCCC1)C(=O)CCCCOc1ccc2[nH]c(=O)ccc2c1` [Test compound 17, 6-{4-[N-cyclooctylmethyl-N-(3-diethylaminopropyl)-aminocarbonyl]butoxy}carbostyril oxalate], for which the IC50 in the data set with platelets (aggregation induced by ADP, final concentration 7.5 µM, listed as 28, oxalate, read-out: IC50 (µM) ADP) was 2.8 µM; with platelets (aggregation induced by collagen, final concentration 20 µg/ml, listed as 28, oxalate, read-out: IC50 (µM) Collagen), 1.2 µM.

`CCN(CC)CCCCN(CC1CCCCCCC1)C(=O)CCCCOc1ccc2[nH]c(=O)ccc2c1.O=C(O)C(=O)O` [Test compound 18, 6-{4-[N-cyclooctylmethyl-N-(4-diethylaminobutyl)-aminocarbonyl]butoxy}carbostyril oxalate]: the IC50 in the data set with platelets (aggregation induced by ADP, final concentration 7.5 µM, listed as 29, oxalate, read-out: IC50 (µM) ADP) was 8.3 µM; in the data set on platelets (aggregation induced by collagen, final concentration 20 µg/ml, listed as 29, oxalate, read-out: IC50 (µM) Collagen), 3.7 µM. For the same molecule, in the data set with mongrel dogs, the “Maximum increase in heart rate (beats/min) (Administration amount = 30 µg/kg)” value was found to be 2 beats/min.

`CCN(CC)CCN(CC1CCCCCCC1)C(=O)CCCCOc1ccc2c(c1)CCC(=O)N2` [Test compound 20, 6-{4-[N-cyclooctylmethyl-N-(2-diethylaminoethyl)-aminocarbonyl]butoxy}3,4-dihydrocarbostyril oxalate]: the IC50 in the data set on platelets (aggregation induced by ADP, final concentration 7.5 µM, listed as 34, oxalate, read-out: IC50 (µM) ADP) worked out at 0.84 µM; with platelets (aggregation induced by collagen, final concentration 20 µg/ml, listed as 34, oxalate, read-out: IC50 (µM) Collagen), 0.48 µM.

With `CCN(CC)C[C@H](C)N(CC1CCCCCCC1)C(=O)CCCCOc1ccc2[nH]c(=O)ccc2c1` [Example 21], the values for the IC50 in the data set with platelets (setting [1]) and with platelets (setting [2]) were 5.4 µM and 3.2 µM, respectively. Moreover, in the data set on mongrel dogs, the “Maximum increase in heart rate (beats/min) (Administration amount = 30 µg/kg)” value came out at 7 beats/min.

`O=C(CCCCOc1ccc2[nH]c(=O)ccc2c1)N(CCN1CCCCC1CO)CC1CCCCCCC1` (stereo not drawn) [Example 4]: the concentration for half-maximal inhibition (IC50) with platelets (setting [3]) was determined as 2.7 µM; with platelets (setting [4]), 1.6 µM. In the data set on mongrel dogs, the “Maximum increase in heart rate (beats/min) (Administration amount = 30 µg/kg)” value stood at 6 beats/min.

With `O=C(CCCCOc1ccc2[nH]c(=O)ccc2c1)N(CCN1CCOCC1)CC1CCCCCCC1` [Example 7], the results for the IC50 in the data set on platelets (setting [3]) and in the data set on platelets (setting [4]) were 1.5 µM and 0.65 µM, respectively.

With `CCN(CCO)CCN(CC1CCCCCCC1)C(=O)CCCCOc1ccc2[nH]c(=O)ccc2c1` [Example 25], the figures for the IC50 in the data set on platelets (setting [1]) and with platelets (setting [2]) were 2.1 µM and 1.4 µM, respectively.

In the case of `O=C(CCCCOc1ccc2[nH]c(=O)ccc2c1)N(CCN1CCC(O)CC1)CC1CCCCCCC1` [Test compound 8, 6-[4-{N-cyclooctylmethyl-N-[2-(4-hydroxy-1-piperidinyl)ethyl]aminocarbonyl}butoxy]carbostyril], the IC50 in the data set on platelets (setting [1]) turned out to be 1.7 µM; in the data set with platelets (setting [2]), 0.7 µM.

Take `CCN(CC)CCN(CC1CCCCCCC1)C(=O)CCCCOc1ccc2c(c1)CCC(=O)N2` [Example 20]: the figures for the half-maximal inhibitory concentration (IC50) in the data set on platelets (setting [3]) and with platelets (setting [4]) were 21.2 µM and 7 µM, respectively. In the data set on mongrel dogs, the “Maximum increase in heart rate (beats/min) (Administration amount = 30 µg/kg)” value was 4 beats/min.

Regarding “6-[4-{N-cyclohexylmethyl-N-[2-(1-pyrrolidinyl)-ethyl]aminocarbonyl}butoxy]carbostyril [Example 1]”, the IC50 in the data set with platelets (setting [3]) is 3.4 µM; in the data set on platelets (setting [4]), 1.1 µM.

`CSCCC(COC(C)=O)N(CC1CCCCC1)C(=O)CCCCOc1ccc2[nH]c(=O)ccc2c1` (stereo not drawn) [Example 47]: the values for the IC50 in the data set on platelets (setting [1]) and in the data set with platelets (setting [2]) were 0.63 µM and 0.49 µM, respectively.

For `CCN(CC)CCCN(CC1CCCCCCC1)C(=O)CCCCOc1ccc2[nH]c(=O)ccc2c1` [Example 17], the values for the half-inhibitory concentration (IC50) with platelets (setting [1]) and in the data set on platelets (setting [4]) were 5 µM and 2.8 µM, respectively.

Turning to “6-[4-{N-cyclooctylmethyl-N-[2-(2β-dimethylamino-methyl-1-pyrrolidinyl)ethyl]aminocarbonyl}butoxy]-carbostyril difumarate [Test compound 10]”, the IC50 with platelets (setting [3]) is 3.9 µM; in the data set with platelets (setting [4]) it was 1.8 µM.

For the molecule `CC1CCCC(C)N1CCN(CC1CCCCCCC1)C(=O)CCCCOc1ccc2[nH]c(=O)ccc2c1` (stereo not drawn) [Example 9], the IC50 worked out at 4.5 µM in the data set on platelets (setting [3]) and 1.6 µM with platelets (setting [4]). Also, the “Maximum increase in heart rate (beats/min) (Administration amount = 30 µg/kg)” value in the data set with mongrel dogs is 0 beats/min.

Turning to `CCN(CC)CCCCN(CC1CCCCCCC1)C(=O)CCCCOc1ccc2[nH]c(=O)ccc2c1` [Example 18], the IC50 was found to be 6 µM in the data set on platelets (setting [1]) and 4.8 µM in the data set on platelets (setting [2]). In addition, the “Maximum increase in heart rate (beats/min) (Administration amount = 30 µg/kg)” value in the data set on mongrel dogs was found to be 5 beats/min.

For `C=CCN(CC)CCN(CC1CCCCCCC1)C(=O)CCCCOc1ccc2[nH]c(=O)ccc2c1` [Example 26], the IC50 turned out to be 3.6 µM in the data set with platelets (setting [1]) and 1.3 µM in the data set with platelets (setting [2]).

`O=C(CCCCOc1ccc2[nH]c(=O)ccc2c1)N(CCN1CCC(O)C1)CC1CCCCCCC1` (stereo not drawn) [Test compound 6, 6-[4-{N-cyclooctylmethyl-N-[2-(3-hydroxy-1-pyrrolidinyl)ethyl]aminocarbonyl}butoxy]carbostyril oxalate]: the IC50 with platelets (setting [1]) turned out to be 1.7 µM; with platelets (setting [2]), 0.5 µM.

As for `CCN(CC)CCN(CC1CCCCCCC1)C(=O)CCCCOc1ccc2[nH]c(=O)ccc2c1` [Example 16], the half-inhibitory concentration (IC50) is 3 µM in the data set on platelets (setting [1]) and 1.1 µM in the data set on platelets (setting [2]). The “Maximum increase in heart rate (beats/min) (Administration amount = 30 µg/kg)” value with mongrel dogs worked out at 7 beats/min.

“6-[4-(N-cyclooctylmethyl-N-diethylamidomethyl)-aminocarbonyl]butoxy}carbostyril [Test compound 19]”: the figures for the IC50 in the data set on platelets (setting [3]) and with platelets (setting [4]) were 2.1 µM and 1.3 µM, respectively.
